Reference: ChEMBL document CHEMBL1201862, “PubChem BioAssay data set” (2004)
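48-hour exposure; five concentrations; linearly interpolated endpoints. GI50 = concentration required for 50% inhibition of growth.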 Active and inactive are the calls of the source. Cut-off read from the data, not from the text of the source: active = GI50 up to about 1.1 µM and inactive = higher.

What was measured:
Test in all cases: NCI tumour cell line growth inhibition, 48 h
OVCAR-4 = test system: OVCAR-4
SK-MEL-28 = test system: SK-MEL-28
KM12 = test system: KM12
COLO 205 = test system: COLO 205
M14 = test system: M14
SF-539 = test system: SF-539
LOX IMVI = test system: LOX IMVI
A549 = test system: A549
Malme-3M = test system: Malme-3M
OVCAR-5 = test system: OVCAR-5
U-251 = test system: U-251
SN12C = test system: SN12C
SF-268 = test system: SF-268
HOP-92 = test system: HOP-92
MOLT-4 = test system: MOLT-4
NCI/ADR-RES = test system: NCI/ADR-RES
SK-MEL-2 = test system: SK-MEL-2
A498 = test system: A498
BT-549 = test system: BT-549

Measured: GI50

Cn1nc2ccc3nccc(NCCNCCO)c3c2n1
inactive: OVCAR-4 40.9 µM | SK-MEL-28 39.4 µM | KM12 35 µM | COLO 205 17.5 µM | M14 32.5 µM | SF-539 33.6 µM | LOX IMVI 20.4 µM | A549 40.2 µM | Malme-3M 36.8 µM | OVCAR-5 25 µM | U-251 37 µM | SN12C 32.8 µM | SF-268 27.4 µM | HOP-92 36.3 µM | MOLT-4 5.56 µM

CN(C)C(n1cc2c(c1)-c1ccc(Cl)cc1C(c1ccccc1F)=NC2)n1cc2c(c1)-c1ccc(Cl)cc1C(c1ccccc1F)=NC2
inactive: OVCAR-4 > 100 µM | SK-MEL-28 21.5 µM | COLO 205 > 100 µM | M14 93.1 µM | SF-539 > 100 µM | NCI/ADR-RES > 100 µM | SK-MEL-2 > 100 µM | LOX IMVI 12 µM | A549 52.4 µM | Malme-3M > 100 µM | OVCAR-5 20.2 µM | U-251 > 100 µM | SN12C > 100 µM | SF-268 36 µM | A498 8.17 µM | MOLT-4 > 100 µM

O=C(/C=C(\C(=O)c1cccs1)c1cccs1)c1ccc(C(=O)/C=C(\C(=O)c2cccs2)c2cccs2)cc1
inactive: OVCAR-4 > 100 µM | SK-MEL-28 > 100 µM | KM12 > 100 µM | COLO 205 > 100 µM | M14 > 100 µM | SF-539 > 100 µM | NCI/ADR-RES > 100 µM | SK-MEL-2 > 100 µM | A549 > 100 µM | U-251 > 100 µM | SN12C > 100 µM | SF-268 > 100 µM | MOLT-4 > 100 µM

N=C1C=C(N)C(=O)c2[nH]c(=O)ccc21
inactive: OVCAR-4 1.38 µM | SK-MEL-28 20.6 µM | KM12 1.82 µM | COLO 205 1.73 µM | M14 14.8 µM | SF-539 2.21 µM | NCI/ADR-RES 2.27 µM | SK-MEL-2 2.36 µM | LOX IMVI 2 µM | A549 2.48 µM | Malme-3M 2.39 µM | OVCAR-5 2.5 µM | U-251 2.04 µM | SN12C 1.76 µM | SF-268 2.04 µM | HOP-92 2.11 µM | A498 2.95 µM | MOLT-4 3.5 µM

CNC(=O)CCNC(=O)CCC(=O)OC
inactive: OVCAR-4 > 100 µM | SK-MEL-28 > 100 µM | KM12 > 100 µM | COLO 205 > 100 µM | M14 > 100 µM | SF-539 > 100 µM | NCI/ADR-RES > 100 µM | SK-MEL-2 > 100 µM | A549 > 100 µM | OVCAR-5 > 100 µM | U-251 > 100 µM | SN12C > 100 µM | SF-268 > 100 µM | A498 > 100 µM | MOLT-4 > 100 µM

CC(NCc1c(O)ccc2c(-c3ccccc3)cc(=O)oc12)C(=O)O (stereo unspecified)
inactive: OVCAR-4 > 100 µM | SK-MEL-28 > 100 µM | KM12 > 100 µM | COLO 205 > 100 µM | M14 > 100 µM | SF-539 > 100 µM | NCI/ADR-RES > 100 µM | SK-MEL-2 > 100 µM | LOX IMVI > 100 µM | A549 > 100 µM | Malme-3M > 100 µM | OVCAR-5 > 100 µM | U-251 > 100 µM | SN12C > 100 µM | SF-268 > 100 µM | HOP-92 86.1 µM | MOLT-4 > 100 µM

O=C(NC(Nc1ccc(F)c(Cl)c1)(C(F)(F)F)C(F)(F)F)C(C(F)(F)F)C(F)(F)F
inactive: OVCAR-4 29 µM | SK-MEL-28 50.7 µM | KM12 17.9 µM | COLO 205 28.5 µM | M14 21.9 µM | SF-539 22.6 µM | NCI/ADR-RES 19.8 µM | SK-MEL-2 16.6 µM | LOX IMVI 12 µM | A549 27.2 µM | Malme-3M 19.1 µM | OVCAR-5 23.9 µM | U-251 29.2 µM | SN12C 32.5 µM | SF-268 29.1 µM | HOP-92 29.2 µM | A498 44.3 µM | MOLT-4 15 µM

COc1cc2cc[n+](C)c(Cc3ccc(Oc4cc(Cc5c6cc(OC)c(OC)cc6cc[n+]5C)ccc4OC)cc3)c2cc1OC
inactive: OVCAR-4 > 100 µM | SK-MEL-28 > 100 µM | KM12 > 100 µM | COLO 205 > 100 µM | M14 > 100 µM | SF-539 > 100 µM | SK-MEL-2 > 100 µM | BT-549 > 100 µM | LOX IMVI 79.8 µM | A549 > 100 µM | Malme-3M > 100 µM | OVCAR-5 > 100 µM | U-251 > 100 µM | SN12C > 100 µM | SF-268 > 100 µM | HOP-92 > 100 µM | A498 > 100 µM | MOLT-4 60.1 µM

N#Cc1cc([N+](=O)[O-])ccc1NC(=O)C(=O)Nn1c(S)nc2ccccc2c1=O
inactive: OVCAR-4 > 100 µM | SK-MEL-28 > 100 µM | KM12 > 100 µM | COLO 205 > 100 µM | M14 > 100 µM | SF-539 > 100 µM | LOX IMVI > 100 µM | A549 > 100 µM | Malme-3M > 100 µM | OVCAR-5 > 100 µM | U-251 > 100 µM | SN12C > 100 µM | SF-268 > 100 µM | HOP-92 > 100 µM | A498 > 100 µM

C=C1C(=O)O[C@@H]2[C@H]1CC[C@H](C)[C@]1(O)CCC(=O)[C@@]21C [CORONOPILIN]
inactive: OVCAR-4 > 10 µM | SK-MEL-28 > 10 µM | KM12 > 10 µM | COLO 205 > 10 µM | SF-539 > 10 µM | NCI/ADR-RES > 10 µM | SK-MEL-2 > 10 µM | LOX IMVI > 10 µM | A549 > 10 µM | Malme-3M > 10 µM | U-251 > 10 µM | SN12C > 10 µM | SF-268 > 10 µM | HOP-92 > 10 µM | MOLT-4 > 10 µM

COC(=O)[C@H]1ON2O[C@@H](O[C@H]3CCCC[C@@H]3C(C)(C)c3ccccc3)C[C@@H]3CC[C@H]1[C@@]32C
inactive: KM12 > 100 µM | COLO 205 > 100 µM | M14 > 100 µM | NCI/ADR-RES > 100 µM | LOX IMVI > 100 µM | A549 > 100 µM | OVCAR-5 > 100 µM | U-251 > 100 µM | SN12C > 100 µM | SF-268 > 100 µM | HOP-92 > 100 µM | A498 > 100 µM | MOLT-4 > 100 µM

CN1CCC(O)(OC(=O)C(c2ccccc2)C2(O)CCCC2)CC1 (stereo unspecified)
inactive: OVCAR-4 > 100 µM | SK-MEL-28 > 100 µM | KM12 > 100 µM | COLO 205 > 100 µM | M14 > 100 µM | SF-539 > 100 µM | NCI/ADR-RES > 100 µM | SK-MEL-2 > 100 µM | LOX IMVI > 100 µM | A549 > 100 µM | Malme-3M > 100 µM | OVCAR-5 > 100 µM | U-251 > 100 µM | SN12C > 100 µM | SF-268 > 100 µM | HOP-92 > 100 µM | A498 > 100 µM | MOLT-4 > 100 µM
